Results taken from patent US20210228560A1 (Centogene IP GmbH, priority 2011, published 2021).
Substitutions are numbered along the chain they refer to. “And” between values parts separate entries of the source, which are not always exact repeats. Identical values can stand only once. Like-named read-outs stand apart in the source and are kept apart here. One block for each compound: values may come before it.

Columns and labels:
hexosaminidase A = target: T1, hexosaminidase A (Homo sapiens, UniProt P06865+P07686); details: cited from earlier work
T1 sequence (P06865 89-529): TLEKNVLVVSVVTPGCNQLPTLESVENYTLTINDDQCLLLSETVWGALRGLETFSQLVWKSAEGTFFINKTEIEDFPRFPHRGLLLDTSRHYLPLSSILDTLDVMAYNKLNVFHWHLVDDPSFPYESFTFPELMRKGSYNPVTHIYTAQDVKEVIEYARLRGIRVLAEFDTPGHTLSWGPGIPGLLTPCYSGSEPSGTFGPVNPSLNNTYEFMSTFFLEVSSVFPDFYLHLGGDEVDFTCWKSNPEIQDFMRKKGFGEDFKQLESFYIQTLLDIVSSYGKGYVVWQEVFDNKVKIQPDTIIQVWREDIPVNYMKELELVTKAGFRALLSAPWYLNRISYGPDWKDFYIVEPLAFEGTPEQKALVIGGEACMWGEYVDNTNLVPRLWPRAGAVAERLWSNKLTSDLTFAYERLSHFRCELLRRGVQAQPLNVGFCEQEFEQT
T1 sequence (P07686 122-556): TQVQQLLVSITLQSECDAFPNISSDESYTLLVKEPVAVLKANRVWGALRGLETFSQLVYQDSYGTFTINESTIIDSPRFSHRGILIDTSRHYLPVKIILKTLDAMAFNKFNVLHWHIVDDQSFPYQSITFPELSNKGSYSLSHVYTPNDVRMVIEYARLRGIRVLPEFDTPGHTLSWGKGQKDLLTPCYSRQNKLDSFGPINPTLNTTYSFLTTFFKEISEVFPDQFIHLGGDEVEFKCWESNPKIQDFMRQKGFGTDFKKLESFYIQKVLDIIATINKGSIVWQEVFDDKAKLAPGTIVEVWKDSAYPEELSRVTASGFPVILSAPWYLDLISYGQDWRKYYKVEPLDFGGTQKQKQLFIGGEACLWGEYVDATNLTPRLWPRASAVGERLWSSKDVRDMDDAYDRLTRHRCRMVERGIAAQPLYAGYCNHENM

[1] = target: acid α-glucosidase mutants (Homo sapiens, UniProt P10253, Y455F); type: cell-based; details: 20 μM DNJ + 40 μM compound; FIG. 11
Description: (§1) A bacterial clone containing the full length cDNA of […] (IRATp970C0971D, aligned to accession no. NM_000152.3, GeneBank) was received form ImaGenes GmbH, Berlin, Germany. Amplification was performed with the primers 5′-TAGGAGCTGTCCAGGCCATC-3′ (SEQ ID NO:3) and 5′-GAGAGACTAACACACTCCGC-3′ (SEQ ID NO:4). The PCR was carried out using iProof DNA Polymerase (BioRad). The cDNA was subcloned into pCRII TA TOPO vector (Invitrogen). Prior to ligation, the cDNA insert was incubated with Taq polymerase (Qiagen) to add a poly (A) overhang at the 3′-end for TA-cloning. For expression, the GAA cDNA was ligated into target vector pcDNA3.1/V5-His6 (Invitrogen) using sticky end ligation utilizing unique restriction sites (HindIII, XhoI) offered by both vectors multiple cloning sites.
(§2) Sample preparation was carried out analogously to the α-galactosidase A recordings. As substrate, a 1.3 mg 4-Methylumbelliferyl-α-D-Glukopyranoside/ml solution (in sodium acetate buffer, pH 4.0) was used and 5 μg sample/reaction were added. The reaction was incubated for 60 minutes at 37° C. and stopped with 1M Glycine-NaOH, pH 10.5.

GLA[A156V] = target: T2, GLA[A156V] (Homo sapiens, UniProt P06280, A156V); type: cell-based; details: for mutant enzyme activity in combination with DGJ: concentration of SF-54B and SF-55C 10 μM and 40 μM, respectively; for mutant enzyme activity in combination with DGJ, concentration series: increasing concentrations of compound with DGJ, FIG. 10
T2 sequence (P06280 32-429 A156V): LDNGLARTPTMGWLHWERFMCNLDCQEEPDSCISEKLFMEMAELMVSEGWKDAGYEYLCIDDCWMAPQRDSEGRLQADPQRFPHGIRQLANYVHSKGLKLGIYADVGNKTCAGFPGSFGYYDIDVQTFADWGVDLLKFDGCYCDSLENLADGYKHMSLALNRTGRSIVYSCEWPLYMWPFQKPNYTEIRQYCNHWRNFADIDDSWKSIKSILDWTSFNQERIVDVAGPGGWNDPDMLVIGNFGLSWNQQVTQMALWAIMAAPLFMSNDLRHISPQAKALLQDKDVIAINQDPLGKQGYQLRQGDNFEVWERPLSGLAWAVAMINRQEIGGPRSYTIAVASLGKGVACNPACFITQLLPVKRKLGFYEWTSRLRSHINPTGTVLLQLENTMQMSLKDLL

[2] = target: acid α-glucosidase mutants (Homo sapiens, UniProt P10253, L552P); type: cell-based; details: 20 μM DNJ + 40 μM compound; FIG. 11B
Description: as §1, §2

mutant GLA [3] = details: washout two hours prior to assay; cited from earlier work
Alpha-Gal A = details: grown in the presence of DGJ, cited from earlier work
GLA[R301G] = target: T3, GLA[R301G] (Homo sapiens, UniProt P06280, R301G); type: cell-based
T3 sequence (P06280 32-429 R301G): T2 sequence (P06280 32-429 A156V) with V125A, R270G

mutant GLA [4] = details: cell-free; cited from earlier work
GLA = details: patient lymphoblasts; cited from earlier work
[5] = cited from earlier work
[6] = system: acid α-glucosidase mutants; type: cell-based; details: 20 μM NB-DNJ alone; FIG. 7A
Description: as §1, §2

[7] = Plasma concentration and absorption (literature); type: in vivo, human; details: 32 mg tablet; estimate
[8] = system: GLA mutants (alpha-galactosidase A); details: for enzyme activity of GLA mutants, compound in combination with DGJ: 40 μM compound + 20 μM DGJ, compared to DGJ alone, DGJ-responsive mutants, FIG. 3, FIG. 6
[9] = value with superscript 1 (mark not explained)
[10] = value with superscript 2 (mark not explained)

acid α-glucosidase mutants (Homo sapiens, UniProt P10253, L552P), sequence (P10253 70-952 L552P): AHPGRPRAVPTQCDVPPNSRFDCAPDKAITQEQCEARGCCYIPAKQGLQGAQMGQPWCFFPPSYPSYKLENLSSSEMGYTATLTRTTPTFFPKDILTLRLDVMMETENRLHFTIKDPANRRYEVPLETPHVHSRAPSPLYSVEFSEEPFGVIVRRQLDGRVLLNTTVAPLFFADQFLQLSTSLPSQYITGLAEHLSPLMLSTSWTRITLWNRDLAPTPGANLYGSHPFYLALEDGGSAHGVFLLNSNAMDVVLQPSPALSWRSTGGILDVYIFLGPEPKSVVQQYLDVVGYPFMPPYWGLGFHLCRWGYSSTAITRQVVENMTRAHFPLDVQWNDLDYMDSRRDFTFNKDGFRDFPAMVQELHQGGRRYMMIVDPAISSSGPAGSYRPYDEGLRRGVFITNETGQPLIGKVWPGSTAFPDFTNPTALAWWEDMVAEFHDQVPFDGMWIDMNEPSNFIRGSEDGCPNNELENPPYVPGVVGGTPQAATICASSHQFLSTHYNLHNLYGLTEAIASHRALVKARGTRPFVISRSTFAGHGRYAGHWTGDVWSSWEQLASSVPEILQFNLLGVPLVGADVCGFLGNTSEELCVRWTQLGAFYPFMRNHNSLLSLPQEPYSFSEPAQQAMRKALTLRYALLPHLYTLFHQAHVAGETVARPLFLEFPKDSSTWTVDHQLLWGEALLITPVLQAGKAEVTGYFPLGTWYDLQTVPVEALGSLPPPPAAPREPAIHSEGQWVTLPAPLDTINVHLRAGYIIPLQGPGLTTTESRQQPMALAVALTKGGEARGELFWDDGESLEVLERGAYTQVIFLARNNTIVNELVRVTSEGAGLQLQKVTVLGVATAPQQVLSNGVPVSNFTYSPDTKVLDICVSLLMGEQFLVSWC
acid α-glucosidase mutants (Homo sapiens, UniProt P10253, Y455F), sequence (P10253 70-952 Y455F): as the sequence (P10253 70-952 L552P) above, with Y386F, P483L counted along it

- increase in the activity of acid α-glucosidase mutant Y455F, compound with DNJ compared to DNJ alone [1]: comparable
- mutant enzyme activity in combination with DGJ (GLA[A156V]; 20 μM DGJ, FIG. 9): high increase
- mutant enzyme activity in combination with DGJ, concentration series (GLA[A156V]): high increase
Compound: CN(Cc1cc(C#N)cc(Br)c1N)C1CCCCC1 [SF-55C]

- increase in the activity of acid α-glucosidase mutant Y455F, compound with DNJ compared to DNJ alone [1]: higher
- increase in the activity of mutant L552P, compound with DNJ compared to DNJ only [2]: higher
- mutant enzyme activity in combination with DGJ, concentration series (GLA[A156V]): high increase
Compound: CC(=O)Nc1c(Br)cc(Br)cc1CN(C)C1CCCCC1 [SF-150B]

- concentration in combination with DGJ giving an increase as high as Ambroxol at up to 10 μM with DGJ (GLA[A156V]; 20 μM DGJ, FIG. 9): 1 µM
Compound: Cc1cc(C)cc(-c2cc(CN(C)C3CCCCC3)c(N)c(-c3cc(C)cc(C)c3)c2)c1 [SF-80]

- increase in the activity of acid α-glucosidase mutant Y455F, compound with DNJ compared to DNJ alone [1]: comparable
- resulting concentration referring to blood volume after first pass loss [7]: approximately 0.7 μM
Compound: CN(Cc1cc(Br)cc(Br)c1N)C1CCCCC1 [Bromhexine, 2,4-dibromo-6-{[cyclohexyl(methyl)amino]methyl}aniline]
- intestinal absorption ([5]; 32 mg tablet (77.6 μmol)): 22-27%
- concentration of bromhexine ([5]; Bechgaard et al.): 80 nM
- difference of protein activity between Bromhexine and DGJ and Ambroxol and DGJ ([8]; 40 μM Bromhexine or Ambroxol + 20 μM DGJ, FIG. 6): no significant difference
- alpha-Galactosidase A activity of mutant GLAs, bromhexine alone ([8]; 40 μM Bromhexine without DGJ, FIG. 6): no effect
- enzyme activity of GLA mutants, compound in combination with DGJ [8]: significantly increased
- enzyme activity of GLA mutants, compound in combination with DGJ ([8]; listed as bromhexine): increased

- increase in the activity of acid α-glucosidase mutant Y455F, compound with DNJ compared to DNJ alone [1]: comparable
- mutant enzyme activity in combination with DGJ (GLA[A156V]; 20 μM DGJ, FIG. 9): high increase
- mutant enzyme activity in combination with DGJ, concentration series (GLA[A156V]): high increase
Compound: CN(Cc1cc(C#N)cc(C#N)c1N)C1CCCCC1 [SF-54B]

- increase in the activity of acid α-glucosidase mutant Y455F, compound with DNJ compared to DNJ alone [1]: comparable
- increase in the activity of mutant L552P, compound with DNJ compared to DNJ only [2]: higher
Compound: N#Cc1cc(C#N)c(N)c(CNC2CCC(O)CC2)c1 (stereo not drawn) [SF-124B]

- increase in the activity of acid α-glucosidase mutant Y455F, compound with DNJ compared to DNJ alone [1]: higher
- increase in the activity of mutant L552P, compound with DNJ compared to DNJ only [2]: higher
- mutant enzyme activity in combination with DGJ, concentration series (GLA[A156V]): high increase
Compound: CC(=O)OC1CCC(NCc2cc(Br)cc(Br)c2N)CC1 (stereo not drawn) [SF-153B]

Continued, compound first:

Compound: CC(=O)NC1CN2CC[C@H](O)C2[C@@H](O)C1O (stereo partly drawn) [6-Acetamido-6-deoxycastanospermine]
- IC50 (hexosaminidase A; [9]): 500 nM

Compound: OC[C@H]1NC[C@H](O)[C@@H](O)[C@H]1O [DGJ, 1-Deoxygalactonojirimycin]
- concentration tolerated without any detectable inhibition of the tested mutant enzyme (mutant GLA [3]): up to 1 mM
- Alpha-Gal A activity (Alpha-Gal A; other mutations): unaffected
- Alpha-Gal A activity (Alpha-Gal A; several mutations): more than 50 % of normal
- increase of GLA[R301G] activity (GLA[R301G]; 20 μM DGJ without Ambroxol, untreated = 1.0, FIG. 5B): 2.8 fold
- concentration of DGJ sufficient to reach the level of 20 μM DGJ alone (GLA[R301G]; in combination with 40 μM Ambroxol, mutant not named in the block): 4.72 µM
- share of the DGJ concentration needed compared to DGJ alone (GLA[R301G]; in combination with 40 μM Ambroxol, same increase of protein activity): ~25%
- dosages already inhibiting (mutant GLA [4]): below 1 μM
- concentration beyond which GLA activity decreases (GLA): > 100 µM
- clinically achievable concentration ([5]; clinical trials, Wu et al.): 10 µM
- increase of GLA[A156V] activity (GLA[A156V]; 20 μM DGJ alone, no Ambroxol, untreated = 1.0, FIG. 5A): 3.8 fold and 4 fold
- concentration of DGJ reaching the same effect as 20 μM DGJ alone (GLA[A156V]; with 40 μM Ambroxol in addition, GLA[A156V]): 8.9 µM

Compound: CC(=O)N[C@H]1C(O)O[C@H](CO)[C@H](O)[C@@H]1O (stereo partly drawn) [N-Acetyl-galactosamine (GalNAc), N-Acetyl-galactosamine]
- Ki (hexosaminidase A; [9]): 1.9 nM

Compound: N-butyl-DNJ [NB-DNJ]
- enzyme activity of mutations Y455F, P545L and L552P, NB-DNJ [6]: significantly increased

Compound: CC(=O)NC1C(O)NC(CO)[C@@H](O)C1O (stereo partly drawn) [2-Acetamido-2-deoxynojirimycin (ADNJ), 2-Acetamido-2-deoxynojirimycin]
- Ki (hexosaminidase A; [10]): 5 nM

Compound: CC(=O)NC1CNC(CO)[C@@H](O)C1O (stereo partly drawn) [2-Acetamido-1,2-dideoxynojirimycin]
- Ki (hexosaminidase A; [10]): 700 nM
